Data taken from patent US20140243292A1, “SUBSITUTED 2-(CHROMAN-6-YLOXYL)-THIAZOLES AND THEIR USE AS PHARMACEUTICALS” (Sanofi, priority 2011, published 2014).
Counter-ions that a name gives are not always drawn.

Experiments:
human NCX1 [1] = target: T1, human NCX1 (Homo sapiens, UniProt P32418); test: NCX1 inhibition, reverse mode (Ca2+ influx into cells), FLIPR Fluo-4 assay; format: cell-based; conditions: inhibition of NCX1 in reverse mode (Ca2+ influx into cells); read-out: NCX1rv IC50
T1 construct: expressed in transfected cells
In short: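 Max−min Fluo-4 fluorescence (520 nm, FLIPR, 240 points at 2 s) after 20 µM final gramicidin, which drives Na+ loading and reverse-mode Ca2+ entry, gave % inhibition and IC50. Test compound was preincubated 45 min at 16 °C with Fluo-4-loaded CHO cells stably expressing human NCX1, in pH 7.4 buffer containing 3.5 mM CaCl2 and probenecid.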

human NCX1 [2] = target: T1, human NCX1; test: NCX1 inhibition, forward mode (Ca2+ efflux out of cells), FLIPR calcium assay; format: cell-based; conditions: for IC50: CHO cells stably expressing human NCX1, read-out: NCX1fw IC50; for inhibition at 10 µM: CHO cells stably expressing human NCX1, read-out: Inhibition in % at 10 μM, IC50 value not determined
Description: The sodium/calcium exchanger NCX1 can transport calcium ions and sodium ions through the cell membrane. The transport is an exchange of Ca^2+ and Na^+ in two directions depending on membrane potential and ion gradients. At the first direction, named “forward mode” or “calcium export mode”, Ca^2+ is transported out of the cell and Na^+ is transported into the cell. At the other direction, named “reverse mode” or “calcium import mode”, the transport directions are vice versa. The effect of the compounds of the invention on NCX1 was determined in CHO cells stably expressing human NCX1 (gene symbol SLC8A1; cf. WO 2009/115238). The assay is based on the monitoring of intracellular Ca^2+ concentrations using a calcium-sensitive fluorescence dye which is detected by means of a FLIPR device (Fluorimetric Imaging Plate Reader, Molecular Devices).
The assay is based on the monitoring of intracellular Ca^2+ concentrations using the PBX Calcium Assay Kit from BD (Becton, Dickinson and Company) with calcium indicator dye 51-9000177BKa (BD, 640177). CHO cells expressing NCX1 were loaded with the dye, and after a preincubation period with the test compound, Ionomycin (Calbiochem, 407950) was added. Ionomycin is an ionophor for Ca^2+ ions mediating an increase of intracellular Ca^2+ ions. Consequently, intracellular Ca^2+ ions are exchanged against extracellular Na^+ ions (Ca^2+ efflux, forward mode). The decrease of intracellular Ca^2+ ions was detected by measuring the fluorescence of the calcium indicator dye at a wavelength of 520 nm by a FLIPR device.
Briefly, similarly as for the reverse mode, for the forward mode transport assay 18000 cells per well were seeded into a 96 well microplate (Corning COSTAR 3904) and incubated overnight in culture medium (cf. above). A total volume of 100 μl medium per well was used. For the preparation of the FLIPR assay, the culture medium was removed from the plates and 100 μl of assay buffer (133.8 mM NaCl (Sigma, S5886); 4.7 mM KCl (Sigma, P3911); 1.25 mM MgCl2 (Merck, 1.05833.0250); 3.5 mM CaCl2(Merck, 1.02083.0250); 5 mM glucose (Sigma, G7021); 10 mM Hepes (Sigma, H4034); pH 7.4)) were added to each well in a washing step. Assay buffer was removed, and 100 μl of a solution of the test compound in assay buffer in different concentrations were added into the wells. Further, 100 μl of dye solution (0.09% (v/v) calcium indicator dye, 9.1% (v/v) signal enhancer (from PBX Calcium Assay Kit); in assay buffer) were added into each well. The plates were incubated in the dark at room temperature for 60 min. Meanwhile a 10 μM solution of Ionomycin in assay buffer (additionally containing 0.05% fetal calf serum (cf. above); 4° C.) was prepared and stored in the wells of a 96 well microplate (96 well microplate, polypropylene, U-shape (Greiner Bio-One, 650201)). The fluorescence monitoring was performed at 60 measuring points with measurement intervals of 2 sec. After the fifth measuring point, 50 μl of the Ionomycin solution were added to each well of the assay plate to give a final Ionomycin concentration of 2 μM. For the determination of the IC50 values the minimal fluorescence value was subtracted from the maximal fluorescence value for the fifteenth to fifty-fifth measuring points. The calculation of the IC50 values via the percentage inhibitions of Ca^2+ efflux out of cells (forward mode) effected by the test compound was performed in Biost@t Speed 2.0. “NCX1fw IC50” in Table 2 means the IC50 value for inhibition of NCX1 in forward mode (in μM (micromol/liter)).

SMILES | IC50 (human NCX1 [1]) [nM] | IC50 (human NCX1 [2]) [nM] | inhibition at 10 µM (human NCX1 [2]) [%]
O=C(NCc1nnc2n1CCC2)c1cnc(Oc2ccc3c(c2)CCC(c2ccccc2)O3)s1 (stereo not drawn) [Example 2, 2-(2-Phenyl-chroman-6-yloxy)-thiazole-5-carboxylic acid (6,7-dihydro-5H-pyrrolo[2,1-c][1,2,4]triazol-3-ylmethyl)-amide] | 300 | 1900 | 
CC(NC(=O)c1cnc(Oc2ccc3c(c2)CCC(c2cccc(F)c2)O3)s1)c1ccncc1 (stereo not drawn) [Example 13, hydrochloride] | 300 | 900 | 
Cc1c(CNC(=O)c2cnc(Oc3ccc4c(c3)CCC(c3ccccc3)O4)s2)cnn1C (stereo not drawn) [Example 14, 2-(2-Phenyl-chroman-6-yloxy)-thiazole-5-carboxylic acid (1,5-dimethyl-1H-pyrazol-4-ylmethyl)-amide] | 300 | 2200 | 
O=C(NCc1ccncc1)c1cnc(Oc2ccc3c(c2)CCC(c2cccc(F)c2)O3)s1 (stereo not drawn) [Example 18, hydrochloride] | 200 | 600 | 
O=C(NCc1nnc2n1CCC2)c1cnc(Oc2ccc3c(c2)CCC(c2cccc(F)c2)O3)s1 (stereo not drawn) [Example 20, hydrochloride] | 200 | 1200 | 
O=C(NCc1ccncn1)c1cnc(Oc2ccc3c(c2)CCC(c2ccccc2)O3)s1 (stereo not drawn) [Example 32] | 600 |  | 27
O=C(NCc1ccnc(Cl)c1)c1cnc(Oc2ccc3c(c2)CCC(c2ccccc2)O3)s1 (stereo not drawn) [Example 39, 2-(2-Phenyl-chroman-6-yloxy)-thiazole-5-carboxylic acid (2-chloro-pyridin-4-ylmethyl)-amide] | 300 | 1200 | 
O=C(NCc1ccno1)c1cnc(Oc2ccc3c(c2)CCC(c2cccnc2)O3)s1 (stereo not drawn) [Example 58, hydrochloride] | 600 | 8300 | 
Cc1nc(Oc2ccc3c(c2)CCC(c2ccccc2)O3)sc1C(=O)NCc1ccncc1 (stereo not drawn) [Example 59, hydrochloride] | 100 | 200 | 
c1ccc(C2CCc3cc(Oc4ncc(CNC5CC5)s4)ccc3O2)cc1 (stereo not drawn) [Example 103] | 200 | 3100 | 
Cc1nn(C)c(C)c1S(=O)(=O)NCc1cnc(Oc2ccc3c(c2)CCC(c2ccccc2)O3)s1 (stereo not drawn) [Example 125, 1,3,5-Trimethyl-1H-pyrazole-4-sulfonic acid [2-(2-phenyl-chroman-6-yloxy)-thiazol-5-ylmethyl]-amide] | 9200 |  | 20
c1ccc(C2CCc3cc(Oc4ncc(CNCc5ccncc5)s4)ccc3O2)cc1 (stereo not drawn) [Example 134, [2-(2-Phenyl-chroman-6-yloxy)-thiazol-5-ylmethyl]-pyridin-4-ylmethyl-amine] | 200 | 2600 | 
c1ccc(C2CCc3cc(Oc4ncc(CNCc5cn6ccsc6n5)s4)ccc3O2)cc1 (stereo not drawn) [Example 158] | 300 |  | 46
O=C(NCc1ccncc1)c1sc(Oc2ccc3c(c2)CCC(c2ccccc2)O3)nc1Cl (stereo not drawn) [Example 177, 4-Chloro-2-(2-phenyl-chroman-6-yloxy)-thiazole-5-carboxylic acid (pyridin-4-ylmethyl)-amide hydrochloride] | 300 | 800 | 
COC(=O)C(C)(C)NC(=O)c1cnc(Oc2ccc3c(c2)CC[C@@H](c2ccccc2)O3)s1 [Example 182] | 600 |  | 8
CCOC(=O)[C@@H]1CCCC[C@@H]1NC(=O)c1cnc(Oc2ccc3c(c2)CC[C@@H](c2ccccc2)O3)s1 [Example 189] | 600 |  | 17
O=C(NC(CCO)C1CC1)c1cnc(Oc2ccc3c(c2)CC[C@@H](c2ccccc2)O3)s1 (stereo partly drawn) [Example 206] | 300 | 1600 | 
O=C(c1cnc(Oc2ccc3c(c2)CC[C@@H](c2ccccc2)O3)s1)N1CCOCC1 [Example 214] | 500 | 4500 | 
Cc1ccccc1C1CCc2cc(Oc3ncc(C(=O)NCCN4CCNC4=O)s3)ccc2O1 (stereo not drawn) [Example 216, 2-(2-o-Tolyl-chroman-6-yloxy)-thiazole-5-carboxylic acid [2-(2-oxo-imidazolidin-1-yl)-ethyl]-amide] | 300 | 1900 | 
O=C(O)C1CN(C(=O)c2cnc(Oc3ccc4c(c3)CC[C@@H](c3ccccc3)O4)s2)CC1C(F)(F)F (stereo partly drawn) [Example 243] | 700 |  | 19
O=C(NC1C2CNCC21)c1cnc(Oc2ccc3c(c2)CC[C@@H](c2ccccc2)O3)s1 (stereo partly drawn) [Example 255] | 300 | 600 | 
COC(=O)[C@@H](C)NC(=O)c1cnc(Oc2ccc3c(c2)CCC(c2cccnc2)O3)s1 (stereo partly drawn) [Example 275] | 3100 | 9900 | 
CCCNC(=O)c1cnc(Oc2ccc3c(c2)CCC(c2ccccc2)O3)s1 (stereo not drawn) [Example 321, 2-(2-Phenyl-chroman-6-yloxy)-thiazole-5-carboxylic acid propylamide] | 400 | 1500 | 
Cc1ccccc1[C@H]1CCc2cc(Oc3ncc(C(=O)NCCO)s3)ccc2O1 [Example 325, 2-((R)-2-o-Tolyl-chroman-6-yloxy)-thiazole-5-carboxylic acid (2-hydroxy-ethyl)-amide] | 200 |  | 26
Cc1ccccc1C1CCc2cc(Oc3nc(C)c(C(=O)NCCO)s3)ccc2O1 (stereo not drawn) [Example 335] | 300 | 900 | 
Cc1ccc(F)cc1C1CCc2cc(Oc3ncc(C(=O)N(C)C)s3)ccc2O1 (stereo not drawn) [Example 348] | 640 | 800 | 
O=C(NCCN1CCNC1=O)c1csc(Oc2ccc3c(c2)CC[C@@H](c2ccccc2)O3)n1 [Example 352] | 210 |  | 31
